This is an account of results in US11773368B2, “Culture method for differentiating primordial germ cells into functionally mature oocytes” (TOKYO UNIVERSITY OF AGRICULTURE, priority 2015, dated 2023).

For this experiment, the system named is primordial germ cells in gonads from female mouse fetuses at 12.5 dpc. Kind of experiment: In vitro organ culture of gonad (secondary follicle formation). It is filed as cell-based. Particulars: (vii) FBS/1 μM MPP group, 1 μM day 5-11. The method, then:
For the medium of the organ culture, the basal medium supplemented with FBS (Gibco, Thermo Fisher Scientific Inc.), SPS (SAGE In vitro Fertilization), the estrogen receptor antagonist, 7α, 17β-[9-([4,4,5,5,5-pentafluoropentyl]sulfinyl)nonyl]estra-1,3,5(10)-triene-3,17-diol; ICI 182,780 (ICI; Tocris Bioscience), 4-hydroxytamoxifen (Sigma-Aldrich), and MPP (Methylpiperidino pyrazole; Cayman Chemical) were added at the indicated concentrations for each experimental group below. The α-MEM medium (Gibco, Thermo Fisher Scientific Inc.) supplemented with 1.5 mM 2-O-α-d glucopyranosyl-1-ascorbic acid (Tokyo Chemical Industry), 10 units/mL penicillin, and 10 μg/mL streptomycin (Sigma-Aldrich) was used as a basal medium (referred to the basal medium hereafter as α-MEM).
ICI 182,780 and 4-hydroxytamoxifen was prepared as follows. ICI 182,780 and 4-hydroxytamoxifen was diluted to 100 mM using DMSO, and cryopreserved stock was prepared. MPP was diluted to 10 mM using DMSO, and cryopreserved stock was prepared. 1 mM solutions of ICI 182, 780 and 4-hydroxytamoxifen were prepared by diluting the 100 mM stocks 100-fold with DMSO just before use and were added to the medium at the indicated final concentrations for each experimental group. MPP was added to the medium at 1 μM as the final concentration just before use.
The gonads for the organ culture were collected with mesonephros or without mesonephros from female mouse fetuses at 12.5 dpc (FIG. 1a). 2.2 ml of the medium was added to each 6-well culture plate used for the organ culture. Transwell®-COL membrane (3.0-μm pore size, 24-mm diameter; Corning) was put on each well of the 6-well culture plate. The gonads were transferred on the membrane and were cultured for 17 days at 37° C. under 5% CO2 and 95% air. Approximately half of the medium in each well was replaced with fresh medium every other day. In the example in which the gonad was cultured with mesonephros, mesonephros was removed from the gonad at day 7 of the organ culture.
The in vitro organ culture of the gonads was performed according to the following conditions described below. The gonads were cultured for total 17 days in each conditions below (FIG. 2):
(i) culture for the complete 17 days period in 10% FBS containing α-MEM (α-MEM+FBS; FBS group);
(ii) culture for the complete 17 days period in 10% SPS containing α-MEM (α-MEM+SPS; SPS group);
(iii) culture for the complete 17 days period in 10% KSR containing α-MEM (α-MEM+KSR; KSR group);
(iv) culture in 10% FBS containing α-MEM for 4 days with a shift to 10% SPS containing α-MEM for 6 days from day 5 and a shift to 10% FBS containing α-MEM until day 17 from day 11 (αMEM+FBS/SPS; FBS/SPS group);
(v) culture in 10% FBS containing α-MEM for 4 days with a shift to 10% FBS containing α-MEM with the addition of 10 nM, 100 nM, 1 μM, 5 μM, or 10 μM (final concentration) ICI for 6 days from day 5 and a shift to 10% FBS containing α-MEM until day […] (αMEM+FBS/10 nM ICI; FBS/10 nM ICI group, αMEM+FBS/100 nM ICI; FBS/100 nM ICI group, αMEM+FBS/1 μM ICI; FBS/1 μM ICI group, αMEM+FBS/5 μM ICI; FBS/5 μM ICI group, or αMEM+FBS/10 μM ICI; FBS/10 μM ICI group);
(vi) culture in 10% FBS containing α-MEM for 4 days with a shift to 10% FBS containing α-MEM with the addition of 1 μM (final concentration) 4-hydroxytamoxifen for 6 days from day 5 and a shift to 10% FBS containing α-MEM until day 17 from day 11 (αMEM+FBS/1 μM Tamoxifen; FBS/1 μM Tamoxifen group);
(vii) culture in 10% FBS containing α-MEM for 4 days with a shift to 10% FBS containing α-MEM with the addition of 1 μM (final concentration) MPP for 6 days from day 5 and a shift to 10% FBS containing α-MEM until day 17 from day 11 (αMEM+FBS/1 μM MPP; FBS/1 μM MPP group).
Vitrification and warming were conducted as follows by reference to Wang, X. et al., “Successful in vitro culture of pre-antral follicles derived from vitrified murine ovarian tissue: oocyte maturation, fertilization, and live births.” Reproduction 141, 183-191 (2011). […]

Consider `Cc1c(-c2ccc(O)cc2)nn(-c2ccc(O)cc2)c1-c1ccc(OCCN2CCCCC2)cc1` [MPP, 4-[1-(4-hydroxyphenyl)-4-methyl-5-[4-[2-(1-piperidinyl)ethoxy]phenyl]-1H-pyrazol-3-yl]-phenol], for which the “secondary follicles collected from one ovary” value is 15.
